Measurements taken from paper PMC8957246, “Synthesis and diverse biological activity profile of triethylammonium isatin-3-hydrazones” (ADMET & DMPK, 2022).
Like-named read-outs stand apart in the source and are kept apart here.

Legend:
Type in all cases: cell-based
[1] = system: Enterococcus faecalis ATCC 29212; assay: Antimicrobial activity, serial dilution (MIC/MBC), Ef; settings: ATCC29212
Experimental: The antimicrobial activity of the test compounds was determined by the serial dilution technique in Muller Hinton Broth 2 and in Sabouradu broth for fungi. The cultures used for testing included Gram-positive bacteria: Staphylococcus aureus ATCC 6538P FDA 209P, Bacillus cereus ATCC 10702 NCTC 8035, Enterococcus faecalis ATCC 29212; Gram-negative bacteria: Escherichia coli ATCC 25922, Pseudomonas aeruginosa ATCC 9027, and fungi: Trichophyton mentagrophytes var. gypseum 1773, and Candida albicans ATCC 10231; methicillin-resistant strains of S. aureus (MRSA) was obtained from hospital patients with chronic tonsillitis in the Republican Clinical Hospital (Kazan, Russia). The bacterial load was 3.0 × 10^5 cfu/ml. The fungi load was 2.0 × 10^3 cfu/ml. The results were recorded every 24 h for 5-7 days. Cultures were incubated at 37 °C. The experiment was repeated three times. […] The minimum inhibitory concentration (MIC) was defined as the minimum concentration of a compound that inhibits the growth of the corresponding test microorganism. The growth of bacteria, as well as the absence of the growth due to the bacteriostatic action of compounds, were recorded.
Synthesized compounds were further evaluated for antimicrobial activity against test microorganisms: Staphylococcus aureus ATCC 209p (Sa), Bacillus cereus ATCC 8035 (Bc), Escherichia coli CDC F-50 (Ec), Enterococcus faecalis (Ef), Pseudomonas aeruginosa ATCC 9027, Aspergillus niger BKMF-1119, Trichophyton mentagrophytes var. gypseum 1773, and Candida albicans 855-653 including methicillin-resistant strains of S. aureus (MRSA 1 and MRSA 2). The minimum inhibitory (MIC) and minimum bactericidal (MBC) concentrations of ammonium salts were determined against these pathogens (Table 1). Due to the lack of activity of compounds 3a-g against Gram-negative bacterial strains and some fungi, the corresponding data are not shown.

[2] = system: platelets (ADP-induced aggregation); assay: Platelet aggregation (Born method), ADP-induced; settings: Homo sapiens, ADP 20 μg/mL, final concentration 2×10^–3 mol/L, median (25-75 percentiles), read-out: Platelets aggregation, % of control, ADP
Experimental: (§1) The in vitro experiments were performed using the blood of healthy male donors aged 18-24 years (total 54 donors). The study was approved by the Ethics Committee of Federal State Budgetary Educational Institution of Higher Education at the Bashkir State Medical University of the Ministry of Health of Russian Federation (No.2 dated 17.10.2012). Informed consent was obtained from all participants before blood sampling. The blood was collected from the cubital vein using the system of vacuum blood collection BD Vacutainer® (Becton, Dickinson and Company, USA). A 3.8 % sodium citrate solution in a 9:1 ratio was used as a venous blood stabiliser. The study of the effect on platelet aggregation was performed using the Born method using the aggregometer «AT-02» (SPC Medtech, Russia). The assessment of antiplatelet activity of the studied compounds and reference preparations was started with the final concentration of 2×10^–3 mol/L. Adenosine diphosphate (ADP; 20 μg/mL) and collagen (5 mg/mL) manufactured by Tehnologia-Standart Company, Russia, were used as inducers of aggregation. The study on the anticoagulant activity was performed by standard recognised clotting tests using the optical two-channel automatic analyser of blood coagulation Solar CGL 2110 (CJSC SOLAR, Belarus). The following parameters were studied: activated partial thromboplastin time (APTT), prothrombin time (PT) and fibrinogen concentrations according to the Clauss method. The determination of anticoagulant activity of the studied compounds and reference preparation was performed in a concentration of 5×10^–4 g/mL using the reagents manufactured by Tehnologia-Standart Company (Barnaul, Russia). The results of the study were processed using the statistical package Statistica 10.0 (StatSoft Inc, USA). The Shapiro–Wilk’s test was used to check the normality of actual data distribution. The form of distribution of the data obtained differed from the normal one; therefore, non-parametric methods were used for further analysis. The data were presented as medians and 25 and 75 percentiles. Analysis of variance was conducted using Kruskal–Wallis test. A p value of 0.05 was considered statistically significant.

[3] = system: platelets (collagen-induced aggregation); assay: Platelet aggregation (Born method), collagen-induced; settings: Homo sapiens, collagen 5 mg/mL, final concentration 2×10^–3 mol/L, median (25-75 percentiles), read-out: Platelets aggregation, % of control, Collagen
Experimental: as §1

[4] = system: Pectobacterium atrosepticum 1043; assay: Bactericidal activity, agar diffusion, P. atrosepticum; settings: Pectobacterium atrosepticum, 1043, 2 mM/L
Text: (§2) Plant pathogenic bacterial strains Micrococcus luteus B-109, Pectobacterium atrosepticum 1043, Pectobacterium carotovorum subsp. carotovorum MI, Pseudomonas fluorescens EL-2.1, and Xanthomonas campestris B-610 and fungal strain Fusarium oxysporum IBPPM 543 were obtained from the specialized scientific culture collection of IBPPM RAS (WFCC no. 975, WDCM no. 1021) (CM IBPPM). Pathogenic fungus Phytophthora cactorum VKM F-985 provided by the All-Russian Collection of Microorganisms (VKM) and deposited at A.E. Favorsky Irkutsk Institute of Chemistry, SB RAS, was also used as test organism. Bacteria M. luteus, P. carotovorum subsp. carotovorum, P. atrosepticum, and Ps. fluorescens were grown in meat-peptone medium (BP), and X. campestris was grown in the medium with glucose, yeast extract, and calcium carbonate (GYCa). Solid media contained Bacto agar (18 g/L); pH was adjusted to 7.2-7.4. All bacterial cultures were grown at 28°C. The mycelial cultures of F. oxysporum and P. cactorum were grown on a glucose-peptone-yeast (GPY) nutrient medium at 27 °C. For inoculum preparation, both fungal strains were initially grown on the agar GPY in Petri dishes and then transferred into the seed medium by punching out 5 mm of the agar plate culture with a self-designed cutter.
(§3) Antibacterial and antifungal activities of the compounds were explored using the agar diffusion method and the technique of a phytopathogen radial growth inhibition. Method of diffusion in agar (measuring the diameter of growth inhibition zones) was used for determining the bactericidal activity. The 6-mm wells were made in ager medium (GYCa for Xanthomonas campestris or BP for other bacteria). Bacterial suspensions were distributed over the agar surface, and the tested compound's solution (150 μl) was added to each well. The width of growth inhibition zones around the wells was determined after incubation for 36-40 h.
(§4) The solutions of tested compounds were prepared with a concentration of 2 mmol/l (stock solution). For comparison, test compounds were also commonly applied disinfecting agents and antibiotics.

[5] = system: Pectobacterium carotovorum subsp. carotovorum MI; assay: Bactericidal activity, agar diffusion, P. carotovorum; settings: Pectobacterium carotovorum, 2 mM/L
Text: as §2, §3, §4

[6] = system: Xanthomonas campestris B-610; assay: Bactericidal activity, agar diffusion, X. campestris; settings: Xanthomonas campestris, B610, 2 mM/L
Text: as §2, §3, §4

[7] = 150 μl per well, 36-40 h, read-out: width of the inhibition zone
[8] = read-out: Inhibition zone width (mm), not less

In the case of `CC[N+](CC)(CC)CC(=O)N/N=C1\C(=O)N(Cc2cc(C(C)(C)C)c(O)c(C(C)(C)C)c2)c2c(Br)cc(Cl)cc21` [Compound 3g, 2-(2-(1-(3,5-Di-tert-butyl-4-hydroxybenzyl)-5-chloro-7-bromo-2-oxoindolin-3-ylidene)hydrazinyl)-N,N,N-triethyl-2-oxoethanammonium bromide], the MBC [1] is reported as > 500 µM, the MIC [1] is reported as > 500 µM and the inhibition at 2000 µM [2] is reported as 10.2%. For the same compound, the inhibition at 2000 µM [3] was 8.9%, the zone of inhibition at 2000 µM [4, 7] was 9 mm and the zone of inhibition at 2000 µM [4, 8] was ≥ 9 mm. The zone of inhibition at 2000 µM [5, 7] was 9 mm, the zone of inhibition at 2000 µM [5, 8] was ≥ 9 mm and the zone of inhibition at 2000 µM [6, 7] was 8 mm. For the same compound, the zone of inhibition at 2000 µM [6, 8] was ≥ 8 mm.
In the case of `CC[N+](CC)(CC)CC(=O)N/N=C1\C(=O)N(Cc2cc(C(C)(C)C)c(O)c(C(C)(C)C)c2)c2ccc([N+](=O)[O-])cc21` [Compound 3f, 2-(2-(1-(3,5-Di-tert-butyl-4-hydroxybenzyl)-5-nitro-2-oxoindolin-3-ylidene)hydrazinyl)-N,N,N-triethyl-2-oxoethanammonium bromide], the MBC [1] is reported as > 500 µM, the MIC [1] is reported as > 500 µM and the inhibition at 2000 µM [2] is reported as 4.6%. The inhibition at 2000 µM [3] was 4.3%, the zone of inhibition at 2000 µM [4, 7] was 10 mm and the zone of inhibition at 2000 µM [4, 8] was ≥ 10 mm. For the same compound, the zone of inhibition at 2000 µM [5, 7] was 5 mm and the zone of inhibition at 2000 µM [6, 7] was 7.5 mm.
In the case of `CC[N+](CC)(CC)CC(=O)N/N=C1\C(=O)N(Cc2cc(C(C)(C)C)c(O)c(C(C)(C)C)c2)c2ccccc21` [Compound 3a, 2-(2-(1-(3,5-Di-tert-butyl-4-hydroxybenzyl)-2-oxoindolin-3-ylidene)hydrazinyl)-N,N,N-triethyl-2-oxoethanammonium bromide], the MBC [1] is reported as > 500 µM, the MIC [1] is reported as > 500 µM and the inhibition at 2000 µM [2] is reported as 10.5%. The inhibition at 2000 µM [3] was 9.4%, the zone of inhibition at 2000 µM [4, 7] was 8 mm and the zone of inhibition at 2000 µM [4, 8] was ≥ 8 mm. For the same compound, the zone of inhibition at 2000 µM [5, 7] was 10 mm, the zone of inhibition at 2000 µM [5, 8] was ≥ 10 mm and the zone of inhibition at 2000 µM [6, 7] was 10 mm. The zone of inhibition at 2000 µM [6, 8] was ≥ 10 mm.
For `CC[N+](CC)(CC)CC(=O)N/N=C1\C(=O)N(Cc2cc(C(C)(C)C)c(O)c(C(C)(C)C)c2)c2cccc(Br)c21` [Compound 3e, 2-(2-(1-(3,5-Di-tert-butyl-4-hydroxybenzyl)-4-bromo-2-oxoindolin-3-ylidene)hydrazinyl)-N,N,N-triethyl-2-oxoethanammonium bromide], the MBC [1] was > 500 µM, the MIC [1] was > 500 µM and the inhibition at 2000 µM [2] was 0.5%. For the same compound, the inhibition at 2000 µM [3] was 2.4%, the zone of inhibition at 2000 µM [4, 7] was 15 mm and the zone of inhibition at 2000 µM [4, 8] was ≥ 15 mm. The zone of inhibition at 2000 µM [5, 7] was 10 mm, the zone of inhibition at 2000 µM [5, 8] was ≥ 10 mm and the zone of inhibition at 2000 µM [6, 7] was 11 mm. The zone of inhibition at 2000 µM [6, 8] was ≥ 11 mm.
`CC[N+](CC)(CC)CC(=O)N/N=C1\C(=O)N(Cc2cc(C(C)(C)C)c(O)c(C(C)(C)C)c2)c2c1ccc(C)c2C` [Compound 3d, 2-(2-(1-(3,5-Di-tert-butyl-4-hydroxybenzyl)-6,7-dimethyl-2-oxoindolin-3-ylidene)hydrazinyl)-N,N,N-triethyl-2-oxoethanammonium bromide] gave an MBC [1] of 49.6 ± 3.9 µM, an MIC [1] of 49.6 ± 3.9 µM and an inhibition at 2000 µM [2] of 9%. The inhibition at 2000 µM [3] was 8.5%, the zone of inhibition at 2000 µM [4, 7] was 8 mm and the zone of inhibition at 2000 µM [4, 8] was ≥ 8 mm. For the same compound, the zone of inhibition at 2000 µM [5, 7] was 8 mm, the zone of inhibition at 2000 µM [5, 8] was ≥ 8 mm and the zone of inhibition at 2000 µM [6, 7] was 8 mm. The zone of inhibition at 2000 µM [6, 8] was ≥ 8 mm.
`CCc1cccc2c1N(Cc1cc(C(C)(C)C)c(O)c(C(C)(C)C)c1)C(=O)/C2=N\NC(=O)C[N+](CC)(CC)CC` [Compound 3c, 2-(2-(1-(3,5-Di-tert-butyl-4-hydroxybenzyl)-7-ethyl-2-oxoindolin-3-ylidene)hydrazinyl)-N,N,N-triethyl-2-oxoethanammonium bromide] was tested, and the MBC [1] was > 500 µM, the MIC [1] was > 500 µM and the inhibition at 2000 µM [2] was 13.7%. For the same compound, the inhibition at 2000 µM [3] was 12.5%, the zone of inhibition at 2000 µM [4, 7] was 9 mm and the zone of inhibition at 2000 µM [4, 8] was ≥ 9 mm. The zone of inhibition at 2000 µM [5, 7] was 9 mm, the zone of inhibition at 2000 µM [5, 8] was ≥ 9 mm and the zone of inhibition at 2000 µM [6, 7] was 11 mm. For the same compound, the zone of inhibition at 2000 µM [6, 8] was ≥ 11 mm.
